The experiment has as its system P388 leukemia ip, CD2F1 mice, survival T/C. The experiment is described as follows: NCI In Vivo Anticancer Drug Screen. Data for tumor model P388 Leukemia (intraperitoneal) in CD2F1 (CDF1) mice. The conditions noted are these: endpoint: median survival time, higher = longer survival. The essentials:
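Mice carrying the transplanted tumor received test compound or vehicle. Survival was recorded in each group, and the value is the treated-group measurement divided by that of the vehicle-treated control group.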

[1] abbreviates: dose: 50.0 mg/kg/injection, schedule: Q01DX005 (ip), vehicle: saline with Tween-80.
The mark [2] stands for this setting: dose: 100.0 mg/kg/injection, schedule: Q01DX005 (ip), vehicle: saline with Tween-80.
The mark [3] stands for this setting: dose: 200.0 mg/kg/injection, schedule: Q01DX005 (ip), vehicle: saline with Tween-80.
[4] abbreviates: dose: 37.5 mg/kg/injection, schedule: Q01DX009 (ip), vehicle: saline with Tween-80.
The mark [5] stands for this setting: dose: 100.0 mg/kg/injection, schedule: Q04DX002 (ip), vehicle: saline with Tween-80.
Setting [6] is: dose: 200.0 mg/kg/injection, schedule: Q04DX002 (ip), vehicle: saline with Tween-80.
Where [7] appears, read: dose: 100.0 mg/kg/injection, schedule: Q04DX002 (ip), vehicle: saline.
The mark [8] stands for this setting: dose: 200.0 mg/kg/injection, schedule: Q04DX002 (ip), vehicle: saline.

Where “and” joins values, the source holds several entries; their conditions need not be identical. Identical values can stand only once. Inconclusive results and toxic doses are left out.

This passage reports T/C results from PubChem BioAssay AID330 (DTP/NCI, 2004).

With `C/C=C(\C)C(=O)OC1C2C(C)=CC(=O)C(O)C2(C)C2C3(O)OCC24C1OC(=O)C(O)C4C(C)C3O` (stereo not given), the T/C is 154 % of control (dose: 2.5 mg/kg/injection, schedule: Q01DX005 (ip), vehicle: saline); 175 % of control (dose: 7.5 mg/kg/injection, schedule: Q01DX005 (ip), vehicle: Klucel (hydroxypropylcellulose) (HPC)); 154 % of control (dose: 10.0 mg/kg/injection, schedule: Q01DX005 (ip), vehicle: saline); 180 % of control (dose: 15.0 mg/kg/injection, schedule: Q01DX005 (ip), vehicle: Klucel (hydroxypropylcellulose) (HPC)); 154 % of control (dose: 15.0 mg/kg/injection, schedule: Q01DX005 (ip), vehicle: saline); 189 % of control (dose: 30.0 mg/kg/injection, schedule: Q01DX005 (ip), vehicle: Klucel (hydroxypropylcellulose) (HPC)).
Regarding `C[Si](C)(C)CSCCO`, the T/C reads like this: under setting [1], 106 % of control; under setting [2], 104 % of control; under setting [3], 100 % of control.
On to `CC/C(C)=C1\OC(=O)C(C)C(O)C(Cc2cccnc2)NC(=O)C(NC(=O)c2ncccc2O)C(C)OC1=O` (stereo not given), for which the T/C (dose: 18.75 mg/kg/injection, schedule: Q01DX009 (ip), vehicle: saline with Tween-80) was 88 % of control; the T/C under setting [4] is 86 % of control; the T/C (dose: 150.0 mg/kg/injection, schedule: Q01DX009 (ip), vehicle: saline with Tween-80) was 86 % of control.
As for `OCC1(C2CCCNC2)OCCO1` (stereo not given), the T/C was 100 % of control (dose: 25.0 mg/kg/injection, schedule: Q01DX005 (ip), vehicle: saline); 111 % of control and 97 % of control (dose: 50.0 mg/kg/injection, schedule: Q01DX005 (ip), vehicle: saline); 107 % of control (dose: 100.0 mg/kg/injection, schedule: Q01DX005 (ip), vehicle: saline); 108 % of control (dose: 200.0 mg/kg/injection, schedule: Q01DX005 (ip), vehicle: saline).
With `O=c1nc(-c2ccccc2)nc(-c2ccccc2)[nH]1`, the T/C by setting is: under setting [5], 93 % of control; under setting [6], 89 % of control; (dose: 400.0 mg/kg/injection, schedule: Q04DX002 (ip), vehicle: saline with Tween-80) 108 % of control.
For the molecule `Cc1ccc(-c2c(C)c3c(c(C)c2-c2ccc(C)cc2)-c2ccccc2C3=O)cc1`, the T/C is 100 % of control under setting [7] and 95 % of control under setting [8].
Consider `Nc1ccccc1N1C(c2ccccc2)=CC(=O)N2CCN=C21`, for which the T/C was 90 % of control (dose: 50.0 mg/kg/injection, schedule: Q01DX009 (ip), vehicle: Klucel (hydroxypropylcellulose) (HPC)); 101 % of control (dose: 100.0 mg/kg/injection, schedule: Q01DX009 (ip), vehicle: Klucel (hydroxypropylcellulose) (HPC)); 95 % of control (dose: 200.0 mg/kg/injection, schedule: Q01DX009 (ip), vehicle: Klucel (hydroxypropylcellulose) (HPC)).
Regarding `CC1(C=O)CCCC2(C)[C@@H]1CCC13CC(CC[C@H]12)C(C(=O)O)C3` (stereo not given in full), the T/C by setting is: (dose: 3.25 mg/kg/injection, schedule: Q01DX005 (ip), vehicle: Klucel (hydroxypropylcellulose) (HPC)) 86 % of control; (dose: 6.5 mg/kg/injection, schedule: Q01DX005 (ip), vehicle: Klucel (hydroxypropylcellulose) (HPC)) 90 % of control; (dose: 13.0 mg/kg/injection, schedule: Q01DX005 (ip), vehicle: Klucel (hydroxypropylcellulose) (HPC)) 87 % of control.
Turning to `CCC(c1ccc(OC)cc1)C(NC(=S)Nc1ccc(Br)cc1)c1ccc(OC)cc1` (stereo not given), the T/C is, setting by setting: (dose: 100.0 mg/kg/injection, schedule: Q01DX001 (ip), vehicle: saline with Tween-80) 96 % of control; (dose: 200.0 mg/kg/injection, schedule: Q01DX001 (ip), vehicle: saline with Tween-80) 99 % of control; (dose: 400.0 mg/kg/injection, schedule: Q01DX001 (ip), vehicle: saline with Tween-80) 93 % of control.
Take `O=c1[nH]c(=O)c2cc3[nH]ncc3cc2[nH]1`: the T/C by setting is: (dose: 25.0 mg/kg/injection, schedule: Q01DX005 (ip), vehicle: saline with Tween-80) 93 % of control; under setting [1], 93 % of control; under setting [2], 92 % of control.
For the molecule `Cn1c(-c2ccc(/C=N/N=C(\N)N/N=C/c3ccc(-c4c[n+]5ccsc5n4C)cc3)cc2)c[n+]2ccsc12`, the T/C runs as follows: (dose: 0.13 mg/kg/injection, schedule: Q01DX005 (ip), vehicle: saline) 108 % of control; (dose: 0.25 mg/kg/injection, schedule: Q01DX005 (ip), vehicle: saline) 121 % of control.
Take `Nc1nc2ccccc2n1/N=C/c1ccccc1[N+](=O)[O-]`: the T/C by setting is: (dose: 100.0 mg/kg/injection, schedule: Q01DX001 (ip), vehicle: Klucel (hydroxypropylcellulose) (HPC)) 90 % of control; (dose: 200.0 mg/kg/injection, schedule: Q01DX001 (ip), vehicle: Klucel (hydroxypropylcellulose) (HPC)) 100 % of control; (dose: 400.0 mg/kg/injection, schedule: Q01DX001 (ip), vehicle: Klucel (hydroxypropylcellulose) (HPC)) 98 % of control.
As for `O=C(Nc1nncs1)c1cccs1`, the T/C is 100 % of control (dose: 50.0 mg/kg/injection, schedule: Q04DX002 (ip), vehicle: saline with Tween-80); 113 % of control (dose: 50.0 mg/kg/injection, schedule: Q04DX002 (ip), vehicle: saline); 103 % of control under setting [2]; 104 % of control and 114 % of control under setting [5]; 106 % of control under setting [7]; 101 % of control under setting [3]. In addition, the T/C by setting is: under setting [6], 114 % of control; under setting [8], 122 % of control; (dose: 400.0 mg/kg/injection, schedule: Q01DX005 (ip), vehicle: saline with Tween-80) 96 % of control; (dose: 600.0 mg/kg/injection, schedule: Q04DX002 (ip), vehicle: saline with Tween-80) 160 % of control; (dose: 800.0 mg/kg/injection, schedule: Q01DX005 (ip), vehicle: saline with Tween-80) 104 % of control.
For `O=NN(CCCl)C(=O)Nc1ccc(I)cc1`, the T/C is, setting by setting: (dose: 3.0 mg/kg/injection, schedule: Q01DX009 (ip), vehicle: saline with Tween-80) 154 % of control; (dose: 4.5 mg/kg/injection, schedule: Q01DX009 (ip), vehicle: saline with Tween-80) 163 % of control; (dose: 6.25 mg/kg/injection, schedule: Q04DX003 (ip), vehicle: saline with Tween-80) 154 % of control; (dose: 11.0 mg/kg/injection, schedule: Q01DX009 (ip), vehicle: saline with Tween-80) 150 % of control and 152 % of control; (dose: 12.5 mg/kg/injection, schedule: Q04DX003 (ip), vehicle: saline with Tween-80) 163 % of control; (dose: 16.5 mg/kg/injection, schedule: Q01DX009 (ip), vehicle: saline with Tween-80) 154 % of control and 157 % of control. Also, the T/C (dose: 25.0 mg/kg/injection, schedule: Q01DX009 (ip), vehicle: saline with Tween-80) was 152 % of control and 154 % of control and 163 % of control; the T/C (dose: 25.0 mg/kg/injection, schedule: Q04DX003 (ip), vehicle: saline sonified) was 150 % of control; the T/C under setting [4] was 171 % of control and 177 % of control; the T/C (dose: 50.0 mg/kg/injection, schedule: Q01DX009 (ip), vehicle: saline with Tween-80) is 200 % of control; the T/C (dose: 50.0 mg/kg/injection, schedule: Q04DX003 (ip), vehicle: saline sonified) was 183 % of control.
Regarding `CCCCCCCC[N+](C)(CCCCCCCC)CCCCCCCC`, the T/C by setting is: (dose: 1.0 mg/kg/injection, schedule: Q04DX003 (ip), vehicle: saline) 104 % of control; (dose: 2.0 mg/kg/injection, schedule: Q04DX003 (ip), vehicle: saline) 104 % of control; (dose: 4.0 mg/kg/injection, schedule: Q04DX003 (ip), vehicle: saline) 108 % of control.
`O=C(S)c1ccc(Cl)c(Cl)c1`: the T/C under setting [1] is 90 % of control, the T/C under setting [2] was 87 % of control and the T/C under setting [3] was 92 % of control.
Regarding `C[CH2][Sn]1([CH2]C)[O]C2C(OC)OC3COC(c4ccccc4)OC3C2[O]1` (stereo not given), the T/C reads like this: (dose: 1.56 mg/kg/injection, schedule: Q04DX003 (ip), vehicle: saline) 101 % of control and 107 % of control; (dose: 3.12 mg/kg/injection, schedule: Q04DX003 (ip), vehicle: saline) 104 % of control and 116 % of control; (dose: 6.25 mg/kg/injection, schedule: Q04DX003 (ip), vehicle: saline) 101 % of control and 116 % of control and 117 % of control; (dose: 12.5 mg/kg/injection, schedule: Q04DX003 (ip), vehicle: saline) 104 % of control and 116 % of control.
